Data: patent publication US9012487B2, “Bicyclo-pyrazoles active as kinase inhibitors” (Nerviano Medical Sciences S.r.l., priority 2006, dated 2015)
Structures can show the parent of a compound that is named as a salt.

Tests used:
IGF-1R = biological target: T1, IGF-1R (Homo sapiens, UniProt P08069, M1123C/Y1125N); assay: Inhibition assay for IGF-1R kinase activity (Scintillation Proximity Assay); settings: read-out: IGF1R IC50 (μM) Biochemical assay
T1 construct: made in house; host or cells: baculovirus; virus made in Sf21, protein expressed in H5 insect cells
Description: Human cDNA was used as template for amplification by polymerase chain reaction (PCR) of the whole cytoplasmic portion of IGF-1R (amino acid residues 960-1367), which includes the entire kinase domain. PCR was conducted using the forward primer sequence 5′-[…]-3′ (SEQ ID NO: 1) and the reverse primer sequence 5′-[…]-3′ (SEQ ID NO: 2). In order to facilitate subsequent cloning steps, both primers comprise a BamHI restriction endonuclease site sequence. The PCR product was cloned into a transfer vector for the baculovirus expression system, pVL1393 (Pharmingen), modified to include the sequence encoding the Glutathione S-transferase (GST) fusion protein and a PreScission cleavage site upstream of the inserted gene of interest. The GST-IGF-1R coding region corresponds to nucleic acid residues of 4168-6084. The final protein encoded by the open reading frame corresponds to a fusion protein of 639 amino acids, shown in SEQ ID NO: 3 (FIG. 1). […]
The inhibitory activity of putative kinase inhibitors and the potency of selected compounds was determined using a Scintillation Proximity Assay (SPA) in 96 well microtiter plate format. […] When a radioactively labeled phosphate moiety is transferred by the kinase to the biotinylated peptide, this stimulates light emission by the bead, which is measured in a scintillation counter. […]

[1] = system: IGF-1 induced S6 ribosomal protein phosphorylation; assay: Growth factor induced S6 ribosomal protein phosphorylation in primary human fibroblasts (NHDF); format: cell-based; settings: normal human dermal fibroblasts (NHDF), stimulated with 10 nM IGF-1; read-out: Inhibition of IGF1R-induced S6 phosphorytation IC50
Description: Growth Factor Induced S6 Ribosomal Protein Phosphorylation in Primary Human Fibroblasts. Phosphorylation of S6 ribosomal protein in response to growth factor stimulation of normal human dermal fibroblasts (NHDF) was used to assess compound potency in inhibiting IGF-1 induced signal transduction in cells, and selectivity towards EGF and PDGF stimulus. NHDF cells obtained from PromoCell (Heidelberg, Germany), were maintained at 37° C. in a humidified atmosphere with 5% CO2 in complete Fibroblast Growth Medium (PromoCell). For assay, NHDF were seeded in 384-well tissue culture plates (clear- and flat-bottomed black plates; Matrix Technologies Inc., Hudson, N.H., USA) at a density of 5000 cells/well in serum-free medium containing 0.1% bovine serum albumin (BSA) and incubated for 5 days. […] Fluorescence images in the DAPI and Cy5™ channels were automatically acquired, stored and analysed using a Cellomics ArrayScan™ IV instrument (Cellomics, Pittsburgh, USA); the Cellomics Cytotoxicity Algorithm was used to quantify cytoplasmic fluorescence associated with phospho-S6 (Cy5™ signal parameter: “Mean Lyso Mass-pH”) for each cell in 10 fields/well, and eventually expressed as a mean population value. […]

IGF1R = biological target: T2, IGF1R (Homo sapiens, UniProt P08069); assay: Western blot analysis of receptor phosphorylation following stimulation with IGF-1 in MCF-7 human breast cancer cells; format: cell-based; settings: MCF-7 starved cells stimulated with 10 nM IGF1; increasing concentrations of compound; Western blot band of pIGF1R (FIG. 2)
T2 construct: endogenous in cells; host or cells: MCF-7 (ATCC #HTB-22)
Description: Treatment of starved MCF-7 cells with 10 nM IGF1 induced receptor auto-phosphorylation as shown by the appearance of a more intense band of phosphorylated IGF1R (pIGF1R).
Western Blot Analysis of Receptor Phosphorylation Following Stimulation with IGF-1 in MCF-7 Human Breast Cancer Cells
MCF-7 cells (ATCC #HTB-22) were seeded in 12-well tissue culture plates at 2×10^5 cells/well in E-MEM medium (MEM+Earle's BSS+2 mM glutamine+0.1 mM non-essential amino acids)+10% FCS, and incubated overnight at 37° C., 5% CO2, 100% relative humidity. Cells were then starved by replacing E-MEM+10% FCS with E-MEM+0.1% BSA, and incubating overnight. After this incubation, wells were treated with desired concentrations of compound for 1 hour at 37° C., and were then stimulated with 10 nM recombinant human IGF-1 (Invitrogen, Carlsbad, Calif., USA) for 10 minutes at 37° C. Cells were then washed with PBS and lysed in 100 microL/well cell lysis buffer (M-PER Mammalian Protein Extraction Reagent [Product #78501, Pierce, Rockford, Ill., USA]+10 mM EDTA+Protease inhibitor cocktail [Sigma-Aldrich product #P8340]+phosphatase inhibitor cocktail [Sigma-Aldrich products #P2850+#P5726]). […]

T2 sequence (P08069 31-1367): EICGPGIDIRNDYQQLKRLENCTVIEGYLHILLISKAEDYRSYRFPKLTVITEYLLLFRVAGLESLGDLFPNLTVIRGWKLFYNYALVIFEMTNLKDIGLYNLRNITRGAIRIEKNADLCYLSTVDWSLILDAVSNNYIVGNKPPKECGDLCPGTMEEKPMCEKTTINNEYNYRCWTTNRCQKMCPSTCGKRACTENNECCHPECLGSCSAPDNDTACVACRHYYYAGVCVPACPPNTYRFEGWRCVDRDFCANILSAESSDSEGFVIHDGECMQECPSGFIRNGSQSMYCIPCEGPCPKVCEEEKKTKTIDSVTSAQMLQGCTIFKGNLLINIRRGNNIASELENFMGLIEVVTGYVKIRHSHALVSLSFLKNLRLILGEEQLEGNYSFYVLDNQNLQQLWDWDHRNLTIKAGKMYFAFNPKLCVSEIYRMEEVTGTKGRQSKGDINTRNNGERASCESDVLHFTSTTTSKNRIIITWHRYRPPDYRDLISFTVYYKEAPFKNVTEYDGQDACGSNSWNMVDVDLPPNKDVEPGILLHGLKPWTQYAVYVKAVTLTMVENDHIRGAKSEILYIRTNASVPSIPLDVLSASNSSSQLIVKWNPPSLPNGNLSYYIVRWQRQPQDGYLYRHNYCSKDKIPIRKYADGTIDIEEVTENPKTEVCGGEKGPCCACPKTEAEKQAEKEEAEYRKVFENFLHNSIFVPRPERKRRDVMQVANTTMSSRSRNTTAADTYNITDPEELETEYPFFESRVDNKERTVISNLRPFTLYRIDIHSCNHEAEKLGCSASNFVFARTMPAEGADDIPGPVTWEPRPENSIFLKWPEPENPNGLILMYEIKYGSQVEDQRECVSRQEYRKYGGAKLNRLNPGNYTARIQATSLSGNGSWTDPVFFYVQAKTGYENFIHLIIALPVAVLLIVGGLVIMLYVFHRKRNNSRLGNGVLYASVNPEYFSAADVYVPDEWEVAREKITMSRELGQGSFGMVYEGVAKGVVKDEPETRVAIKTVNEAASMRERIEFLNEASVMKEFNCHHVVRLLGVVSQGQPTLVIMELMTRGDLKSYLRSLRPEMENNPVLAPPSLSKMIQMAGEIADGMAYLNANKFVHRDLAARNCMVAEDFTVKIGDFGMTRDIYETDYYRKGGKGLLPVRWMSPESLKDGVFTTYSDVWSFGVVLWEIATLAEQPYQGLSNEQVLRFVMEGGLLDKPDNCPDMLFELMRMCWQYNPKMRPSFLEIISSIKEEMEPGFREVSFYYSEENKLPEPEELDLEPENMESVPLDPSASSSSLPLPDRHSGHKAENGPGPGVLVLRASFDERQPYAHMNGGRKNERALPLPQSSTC
T1 sequence (P08069 with tags, fused parts or gaps M1123C/Y1125N): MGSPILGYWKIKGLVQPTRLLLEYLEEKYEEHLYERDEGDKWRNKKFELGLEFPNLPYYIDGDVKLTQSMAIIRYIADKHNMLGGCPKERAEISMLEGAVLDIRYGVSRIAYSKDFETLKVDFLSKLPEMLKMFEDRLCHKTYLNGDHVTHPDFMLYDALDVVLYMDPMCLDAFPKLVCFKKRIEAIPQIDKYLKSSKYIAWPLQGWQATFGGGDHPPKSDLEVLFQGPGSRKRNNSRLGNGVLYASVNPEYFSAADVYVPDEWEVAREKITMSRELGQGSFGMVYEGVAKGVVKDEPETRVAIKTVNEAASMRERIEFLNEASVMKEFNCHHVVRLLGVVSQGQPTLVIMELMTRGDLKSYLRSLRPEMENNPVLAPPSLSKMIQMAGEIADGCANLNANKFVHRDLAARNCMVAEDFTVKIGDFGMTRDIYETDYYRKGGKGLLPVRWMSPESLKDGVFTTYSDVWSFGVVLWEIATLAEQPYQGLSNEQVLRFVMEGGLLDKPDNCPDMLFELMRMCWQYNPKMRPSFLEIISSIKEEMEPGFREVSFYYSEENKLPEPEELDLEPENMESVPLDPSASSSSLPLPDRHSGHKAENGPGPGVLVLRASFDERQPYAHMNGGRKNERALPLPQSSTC

IC50 (IGF-1R) [µM]	SMILES	IC50 [1] [µM]	inhibition of IGF1R auto-phosphorylation (IGF1R)
0.34	CCOC(=O)n1nc(NC(=O)c2ccc(N3CCN(C)CC3)c(N(C)CCOC)c2)c2c1CNC2 [Example 24, 3-[3-[(2-Methoxy-ethyl)-methyl-amino]-4-(4-methyl-piperazin-1-yl)-benzoylamino]-5,6-dihydro-4H-pyrrolo[3,4-c]pyrazole-1-carboxylic acid ethyl ester hydrochloride]	3.05	
	CN1CCN(c2ccc(C(=O)Nc3n[nH]c4c3CN(S(=O)(=O)c3cc(F)cc(F)c3)C4(C)C)cc2)CC1 [Example 43, N-[5-(3,5-difluoro-benzenesulfonyl)-6,6-dimethyl-1,4,5,6-tetrahydro-pyrrolo[3,4-c]pyrazol-3-yl]-4-(4-methyl-piperazin-1-yl)-benzamide]		inhibition of IGF1-induced IGF1R auto-phosphorylation
	CN1CCN(c2ccc(C(=O)Nc3n[nH]c4c3CN(S(=O)(=O)c3cc(F)cc(F)c3)C4(C)C)c(F)c2)CC1 [Example 49, N-[5-(3,5-Difluoro-benzenesulfonyl)-6,6-dimethyl-1,4,5,6-tetrahydro-pyrrolo[3,4-c]pyrazol-3-yl]-2-fluoro-4-(4-methyl-piperazin-1-yl)-benzamide]		inhibition of IGF1-induced IGF1R auto-phosphorylation
